From patent US8754054B2, “Antibacterial compounds, methods of making them, and uses thereof” (Albany Molecular Research, Inc., priority 2010, dated 2014)
≈ marks a conversion by molar mass, not a printed value.

System: MRSA 43300
Assay: Antibacterial activity, NCCLS dilution method (Table 9)
Format: cell-based, S. aureus
Details: MRSA 43300; dilution method; labels marked a tested as a mixture of diastereomers
Text: NCCLS standards for antimicrobial susceptibility testing using the dilution method were followed. See: Performance Standards for Antimicrobial Susceptibility Testing; Fourteenth Informational Supplement. NCCLS Document M100-S14 (ISBN 1-56238-516-X), 2004. NCCLS, 940 West Valley Road, Suite 1400, Wayne, Pa. 19087-1898 USA, 2004; Methods for Dilution Antimicrobial Susceptibility Tests for Bacteria that Grow Aerobically; Approved Standard—Sixth Edition. NCCLS document M7-A6 (IBSBN 1-56238-486-4), NCCLS, 940 West Valley Road, Suite 1400, Wayne, Pa. 19087-1898 USA, 2003, which are hereby incorporated by reference in their entirety.

Compound | MRSA 43300 MIC
(6R,6aS,14aR)-Methyl 1,6,8,12,14a-pentahydroxy-11-((2S,3R,4R,5R,6S)-4-hydroxy-3,5-dimethoxy-6-methyltetrahydro-2H-pyran-2-ylamino)-12-((5-(2-hydroxypropyl)furan-3-yl)methyl)-6a-methoxy-3-methyl-7,9,14-trioxo-5,6,6a,7,9,12,14,14a-octahydrobenzo[a]tetracene-2-carboxylate [Example 61] | 0.06 µg/mL

Same assay, conditions: Staphylococcus aureus, MRSA, MRSA 43300; dilution method; labels marked a tested as a mixture of diastereomers; read-out: MRSA 43300 MIC

Compound | MIC
COC(=O)c1c(C)cc2c(c1O)[C@]1(O)C(=O)c3cc4c(c(O)c3C(=O)[C@]1(OC)[C@H](O)C2)C(=O)C=C(N[C@H]1O[C@@H](C)[C@H](OC)[C@@H](O)[C@H]1OC)C4(C)O (single isomer, unassigned) [Example 55] | 32 µg/mL (≈ 44.8 µM)
COC(=O)c1c(C)cc2c(c1O)[C@]1(O)C(=O)c3cc4c(c(O)c3C(=O)[C@]1(OC)[C@H](O)C2)/C(=N/CCCO)C=C(N[C@H]1O[C@@H](C)[C@H](OC)[C@@H](O)[C@H]1OC)C4=O [Example 48, (6R,6aS,14aR,E)-Methyl 1,6,8,14a-tetrahydroxy-11-((2S,3R,4R,5R,6S)-4-hydroxy-3,5-dimethoxy-6-methyltetrahydro-2H-pyran-2-ylamino)-9-(3-hydroxypropylimino)-6a-methoxy-3-methyl-7,12,14-trioxo-5,6,6a,7,9,12,14,14a-octahydrobenzo[a]tetracene-2-carboxylate] | 1 µg/mL (≈ 1.32 µM)
CO[C@@H]1[C@@H](O)[C@@H](OC)[C@@H](NC2=CC(=O)c3c(cc4c(c3O)C(=O)[C@]3(OC)[C@H](O)Cc5cc(C)c(C(=O)O)c(O)c5[C@]3(O)C4=O)C2=O)O[C@H]1C [Example 13, (6R,6aS,14aR)-1,6,8,14a-Tetrahydroxy-11-((2S,3R,4R,5R,6S)-4-hydroxy-3,5-dimethoxy-6-methyltetrahydro-2H-pyran-2-ylamino)-6a-methoxy-3-methyl-7,9,12,14-tetraoxo-5,6,6a,7,9,12,14,14a-octahydrobenzo[a]tetracene-2-carboxylic acid] | 32 µg/mL (≈ 46.8 µM)
CO[C@@H]1[C@@H](O)[C@@H](OC)C(NC2=CC(=O)c3c(cc4c(c3O)C(=O)[C@]3(OC)[C@H](O)Cc5cc(C)c(C(=O)NCCO)c(O)c5[C@]3(O)C4=O)C2=O)O[C@H]1C (mixture of isomers) [Example 24, (6R,6aS,14aR)-1,6,8,14a-Tetrahydroxy-11-((3R,4R,5R,6S)-4-hydroxy-3,5-dimethoxy-6-methyltetrahydro-2H-pyran-2-ylamino)-N-(2-hydroxyethyl)-6a-methoxy-3-methyl-7,9,12,14-tetraoxo-5,6,6a,7,9,12,14,14a-octahydrobenzo[a]tetracene-2-carboxamide] | 32 µg/mL (≈ 44 µM)
CO[C@@H]1[C@@H](O)[C@@H](OC)C(NC2=CC(=O)c3c(cc4c(c3O)C(=O)[C@]3(OC)[C@H](O)Cc5cc(C)c(C(=O)NCc6ccc(F)cc6)c(O)c5[C@]3(O)C4=O)C2=O)O[C@H]1C (mixture of isomers) [Example 26, (6R,6aS,14aR)—N-(4-Fluorobenzyl)-1,6,8,14a-tetrahydroxy-11-((3R,4R,5R,6S)-4-hydroxy-3,5-dimethoxy-6-methyltetrahydro-2H-pyran-2-ylamino)-6a-methoxy-3-methyl-7,9,12,14-tetraoxo-5,6,6a,7,9,12,14,14a-octahydrobenzo[a]tetracene-2-carboxamide] | 0.5 µg/mL (≈ 0.632 µM)
COC(=O)c1c(C)cc2c(c1OCc1cccnc1)[C@]1(O)C(=O)c3cc4c(c(O)c3C(=O)[C@]1(OC)[C@H](O)C2)C(=O)C=C(N[C@H]1O[C@@H](C)[C@H](OC)[C@@H](O)[C@H]1OC)C4=O.Cl [Example 11, (6R,6aS,14aR)-Methyl 6,8,14a-trihydroxy-11-((2S,3R,4R,5R,6S)-4-hydroxy-3,5-dimethoxy-6-methyltetrahydro-2H-pyran-2-ylamino)-6a-methoxy-3-methyl-7,9,12,14-tetraoxo-1-(pyridin-3-ylmethoxy)-5,6,6a,7,9,12,14,14a-octahydrobenzo[a]tetracene-2-carboxylate hydrochloride] | 0.12 to 0.25 µg/mL
CO[C@@H]1[C@@H](O)[C@@H](OC)[C@@H](NC2=CC(=O)c3c(cc4c(c3O)C(=O)[C@]3(OC)[C@H](O)Cc5cc(C)c(C(N)=O)c(O)c5[C@]3(O)C4=O)C2=O)O[C@H]1C [Example 20, (6R,6aS,14aR)-1,6,8,14a-Tetrahydroxy-11-((2S,3R,4R,5R,6S)-4-hydroxy-3,5-dimethoxy-6-methyltetrahydro-2H-pyran-2-ylamino)-6a-methoxy-3-methyl-7,9,12,14-tetraoxo-5,6,6a,7,9,12,14,14a-octahydrobenzo[a]tetracene-2-carboxamide] | 2 µg/mL (≈ 2.93 µM)
COC(=O)c1c(C)c(Br)c2c(c1O)[C@]1(O)C(=O)c3cc4c(c(O)c3C(=O)[C@]1(OC)[C@H](O)C2)C(=O)C=C(N[C@H]1O[C@@H](C)[C@H](OC)[C@@H](O)[C@H]1OC)C4=O [Example 38, (6R,6aS,14aR)-Methyl 4-bromo-1,6,8,14a-tetrahydroxy-11-((2S,3R,4R,5R,6S)-4-hydroxy-3,5-dimethoxy-6-methyltetrahydro-2H-pyran-2-ylamino)-6a-methoxy-3-methyl-7,9,12,14-tetraoxo-5,6,6a,7,9,12,14,14a-octahydrobenzo[a]tetracene-2-carboxylate] | 1 µg/mL (≈ 1.29 µM)
COC(=O)c1c(C)cc2c(c1O)[C@]1(O)C(=O)c3cc4c(c(O)c3C(=O)[C@]1(OC)[C@H](O)C2)C(=O)C=C(N[C@H]1O[C@@H](C)[C@H](OC)/C(=N/OCC(=O)O)[C@H]1OC)C4=O [Example 51, 2-((Z)-((2S,3R,5R,6S)-3,5-Dimethoxy-2-methyl-6-((6R,6aS,14aR)-1,6,8,14a-tetrahydroxy-6a-methoxy-2-(methoxycarbonyl)-3-methyl-7,9,12,14-tetraoxo-5,6,6a,7,9,12,14,14a-octahydrobenzo[a]tetracen-11-ylamino)-2H-pyran-4(3H,5H,6H)-ylidene)aminooxy)acetic acid] | 8 µg/mL (≈ 10.4 µM)
CO/N=C1/[C@@H](OC)[C@H](C)O[C@H](NC2=CC(=O)c3c(cc4c(c3O)C(=O)[C@]3(OC)[C@H](O)Cc5cc(C)c(C(=O)OC)c(O)c5[C@]3(O)C4=O)C2=O)[C@@H]1OC [Example 50, (6R,6aS,14aR)-Methyl 11-((2S,3R,5R,6S,Z)-3,5-dimethoxy-4-(methoxyimino)-6-methyltetrahydro-2H-pyran-2-ylamino)-1,6,8,14a-tetrahydroxy-6a-methoxy-3-methyl-7,9,12,14-tetraoxo-5,6,6a,7,9,12,14,14a-octahydrobenzo[a]tetracene-2-carboxylate] | 0.25 µg/mL (≈ 0.345 µM)
CO[C@@H]1[C@@H](O)[C@@H](OC)C(NC2=CC(=O)c3c(cc4c(c3O)C(=O)[C@]3(OC)[C@H](O)Cc5cc(C)c(C(=O)N(C)C)c(O)c5[C@]3(O)C4=O)C2=O)O[C@H]1C (mixture of isomers) [Example 16, (6R,6aS,14aR)-1,6,8,14a-Tetrahydroxy-11-((3R,4R,5R,6S)-4-hydroxy-3,5-dimethoxy-6-methyltetrahydro-2H-pyran-2-ylamino)-6a-methoxy-N,N,3-trimethyl-7,9,12,14-tetraoxo-5,6,6a,7,9,12,14,14a-octahydrobenzo[a]tetracene-2-carboxamide] | 16 µg/mL (≈ 22.5 µM)
CCOC(=O)c1c(C)cc2c(c1O)[C@]1(O)C(=O)c3cc4c(c(O)c3C(=O)[C@]1(OC)[C@H](O)C2)C(=O)C=C(N[C@H]1O[C@@H](C)[C@H](OC)[C@@H](O)[C@H]1OC)C4=O [Example 34, (6R,6aS,14aR)-Ethyl 1,6,8,14a-tetrahydroxy-11-((2S,3R,4R,5R,6S)-4-hydroxy-3,5-dimethoxy-6-methyltetrahydro-2H-pyran-2-ylamino)-6a-methoxy-3-methyl-7,9,12,14-tetraoxo-5,6,6a,7,9,12,14,14a-octahydrobenzo[a]tetracene-2-carboxylate] | 0.008 to 0.016 µg/mL (≈ 0.0112 to 0.0225 µM)
COC(=O)c1c(C)c(Br)c2c(c1O)[C@]1(O)C(=O)c3cc4c(c(O)c3C(=O)[C@]1(OC)[C@H](O)C2)C(=O)C(Br)=C(N[C@H]1O[C@@H](C)[C@H](OC)[C@@H](O)[C@H]1OC)C4=O [Example 39, (6R,6aS,14aR)-Methyl 4,10-dibromo-1,6,8,14a-tetrahydroxy-11-((2S,3R,4R,5R,6S)-4-hydroxy-3,5-dimethoxy-6-methyltetrahydro-2H-pyran-2-ylamino)-6a-methoxy-3-methyl-7,9,12,14-tetraoxo-5,6,6a,7,9,12,14,14a-octahydrobenzo[a]tetracene-2-carboxylate] | 2 µg/mL (≈ 2.34 µM)
CO[C@@H]1[C@@H](O)[C@@H](OC)C(NC2=CC(=O)c3c(cc4c(c3O)C(=O)[C@]3(OC)[C@H](O)Cc5cc(C)c(C(=O)NCc6ccc(Cl)cc6)c(O)c5[C@]3(O)C4=O)C2=O)O[C@H]1C (mixture of isomers) [Example 27, (6R,6aS,14aR)—N-(4-Chlorobenzyl)-1,6,8,14a-tetrahydroxy-11-((3R,4R,5R,6S)-4-hydroxy-3,5-dimethoxy-6-methyltetrahydro-2H-pyran-2-ylamino)-6a-methoxy-3-methyl-7,9,12,14-tetraoxo-5,6,6a,7,9,12,14,14a-octahydrobenzo[a]tetracene-2-carboxamide] | 8 µg/mL (≈ 9.91 µM)

Same assay, conditions: Staphylococcus aureus, MRSA, read-out: MRSA 43300 MIC

Compound | MIC
COC(=O)c1c(C)c(N)c2c(c1O)[C@]1(O)C(=O)c3cc4c(c(O)c3C(=O)[C@]1(OC)[C@H](O)C2)C(=O)C=C(N[C@H]1O[C@@H](C)[C@H](OC)[C@@H](O)[C@H]1OC)C4=O [Example 42, (6R,6aS,14aR)-Methyl 4-amino-1,6,8,14a-tetrahydroxy-11-((2S,3R,4R,5R,6S)-4-hydroxy-3,5-dimethoxy-6-methyltetrahydro-2H-pyran-2-ylamino)-6a-methoxy-3-methyl-7,9,12,14-tetraoxo-5,6,6a,7,9,12,14,14a-octahydrobenzo[a]tetracene-2-carboxylate 2,2,2-trifluoroacetate] | 2 to 4 µg/mL (≈ 2.81 to 5.61 µM)
